Measurements as given in ChEMBL document CHEMBL5523749, “Amphiphilic Heparinoids as Potent Antiviral Agents against SARS-CoV-2” (J Med Chem, 2024).
pKd: −log10 of the molar value. In brackets after ≈: the same amount, converted by molar mass.

Experiments:
Human alphaherpesvirus 2 = assay: Antiviral activity against HSV2 infected in CMK AH1 cells assessed as reduction in plaque number measured after 2 days incubation; details: Human alphaherpesvirus 2, CMK AH1, 48 h
SARS-CoV-2 [1] = assay: microbe, parasite or virus in culture; details: Severe acute respiratory syndrome coronavirus 2, D614, Vero C1008
Description: (§1) Antiviral activity against SARS-CoV-2 D614 isolates infected in African green monkey Vero E6 cells assessed as reduction in plaque formation treated for 1 hr prior to infection with cells incubated for 30 mins by plaque reduction neutralization test

[2] = tested on: Respiratory syncytial virus; assay: Antiviral activity against RSV A2 strain infected in HEp-2 cells assessed as reduction in plaque number measured after 3 days incubation; details: human respiratory syncytial virus, A2, HEp-2, 72 h
Spike glycoprotein = Spike glycoprotein (Severe acute respiratory syndrome coronavirus 2, UniProt P0DTC2); assay: Binding affinity to RBD domain of SARS-CoV-2 spike protein assessed as dissociation constant by Isothermal Titration Calorimetry
SARS-CoV-2 [3] = type: functional, organism-based, Severe acute respiratory syndrome coronavirus 2, G614, Vero E6
SARS-CoV-2 [4] = details: vero e6
Description: as §1

Heparanase = target: T1, Heparanase (Homo sapiens, UniProt Q9Y251); assay: Inhibition of recombinant human heparanase expressed in Insect cells assessed as fondaparinux cleavage by measuring disaccharide product incubated for 18 to 21 hrs; details: insect cell
T1 sequence (Q9Y251 whole entry): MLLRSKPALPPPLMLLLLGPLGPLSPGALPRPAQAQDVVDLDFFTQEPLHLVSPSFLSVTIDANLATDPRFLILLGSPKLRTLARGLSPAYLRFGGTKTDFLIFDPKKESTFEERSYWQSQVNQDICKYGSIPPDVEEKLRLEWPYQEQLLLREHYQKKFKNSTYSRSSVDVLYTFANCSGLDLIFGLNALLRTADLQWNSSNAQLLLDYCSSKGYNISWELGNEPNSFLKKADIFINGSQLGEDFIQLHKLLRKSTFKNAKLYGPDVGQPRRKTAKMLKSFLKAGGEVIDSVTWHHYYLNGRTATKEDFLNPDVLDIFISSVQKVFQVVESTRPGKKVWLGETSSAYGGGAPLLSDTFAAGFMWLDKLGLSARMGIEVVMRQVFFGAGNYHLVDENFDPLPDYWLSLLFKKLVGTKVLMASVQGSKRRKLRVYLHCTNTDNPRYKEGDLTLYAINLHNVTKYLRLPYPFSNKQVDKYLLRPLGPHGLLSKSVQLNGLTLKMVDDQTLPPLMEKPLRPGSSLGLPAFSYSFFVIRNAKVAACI

[5] = Severe acute respiratory syndrome coronavirus 2, G614, Vero C1008, read-out: IC50

Compound	IC50 (SARS-CoV-2 [1])	pKd (Spike glycoprotein)	IC50 (SARS-CoV-2 [3]; [5])	IC50 (SARS-CoV-2 [4])	also measured
CC(C)CCC[C@@H](C)[C@H]1CC[C@H]2[C@@H]3CC[C@H]4C[C@@H](O[C@@H]5O[C@H](COS(=O)(=O)[O-])[C@@H](O[C@H]6O[C@H](COS(=O)(=O)[O-])[C@@H](O[C@H]7O[C@H](COS(=O)(=O)[O-])[C@@H](O[C@H]8O[C@H](COS(=O)(=O)[O-])[C@@H](OS(=O)(=O)[O-])[C@H](OS(=O)(=O)[O-])[C@H]8OS(=O)(=O)[O-])[C@H](OS(=O)(=O)[O-])[C@H]7OS(=O)(=O)[O-])[C@H](OS(=O)(=O)[O-])[C@H]6OS(=O)(=O)[O-])[C@H](OS(=O)(=O)[O-])[C@H]5OS(=O)(=O)[O-])CC[C@]4(C)[C@H]3CC[C@]12C.[Na+].[Na+].[Na+].[Na+].[Na+].[Na+].[Na+].[Na+].[Na+].[Na+].[Na+].[Na+].[Na+]	29.6 µg/mL	5.04			IC50 (Human alphaherpesvirus 2): ~1 µg/mL; IC50 [2]: ~1 µg/mL
O=C(CCCCCCCCCCn1cc(CNc2ccc([N+](=O)[O-])c3nonc23)nn1)NCCCCCCO[C@@H]1O[C@H](COS(=O)(=O)[O-])[C@@H](O[C@H]2O[C@H](COS(=O)(=O)[O-])[C@@H](O[C@H]3O[C@H](COS(=O)(=O)[O-])[C@@H](O[C@H]4O[C@H](COS(=O)(=O)[O-])[C@@H](OS(=O)(=O)[O-])[C@H](OS(=O)(=O)[O-])[C@H]4OS(=O)(=O)[O-])[C@H](OS(=O)(=O)[O-])[C@H]3OS(=O)(=O)[O-])[C@H](OS(=O)(=O)[O-])[C@H]2OS(=O)(=O)[O-])[C@H](OS(=O)(=O)[O-])[C@H]1OS(=O)(=O)[O-].[Na+].[Na+].[Na+].[Na+].[Na+].[Na+].[Na+].[Na+].[Na+].[Na+].[Na+].[Na+].[Na+]			16.1 µg/mL	Not Active	
CC(C)CCC[C@@H](C)[C@H]1CC[C@H]2[C@@H]3CC[C@H]4C[C@@H](O[C@@H]5O[C@@H](C(=O)O)[C@@H](O[C@@H]6O[C@@H](C(=O)O)[C@@H](OS(=O)(=O)O)[C@H](O)[C@H]6OS(=O)(=O)O)[C@H](O)[C@H]5OS(=O)(=O)O)CC[C@]4(C)[C@H]3CC[C@]12C	33.7 µg/mL (≈ 34.3 µM)				IC50 (Heparanase): Not Active
CCCCCCCCCCCCCCCCCC(=O)NCCCO[C@@H]1O[C@H](COS(=O)(=O)[O-])[C@@H](O[C@H]2O[C@H](COS(=O)(=O)[O-])[C@@H](O[C@H]3O[C@H](COS(=O)(=O)[O-])[C@@H](O[C@H]4O[C@H](COS(=O)(=O)[O-])[C@@H](O[C@H]5O[C@H](COS(=O)(=O)[O-])[C@@H](O[C@H]6O[C@H](COS(=O)(=O)[O-])C(OS(=O)(=O)[O-])[C@H](OS(=O)(=O)[O-])[C@H]6OS(=O)(=O)[O-])[C@H](OS(=O)(=O)[O-])[C@H]5OS(=O)(=O)[O-])[C@H](OS(=O)(=O)[O-])[C@H]4OS(=O)(=O)[O-])[C@H](OS(=O)(=O)[O-])[C@H]3OS(=O)(=O)[O-])[C@H](OS(=O)(=O)[O-])[C@H]2OS(=O)(=O)[O-])[C@H](OS(=O)(=O)[O-])[C@H]1OS(=O)(=O)[O-].[Na+].[Na+].[Na+].[Na+].[Na+].[Na+].[Na+].[Na+].[Na+].[Na+].[Na+].[Na+].[Na+].[Na+].[Na+].[Na+].[Na+].[Na+].[Na+] (stereo not given in full)				Not Active	IC50 (SARS-CoV-2 [3]; vero e6): Not Active
CC(C)CCC[C@@H](C)[C@H]1CC[C@H]2[C@@H]3CC[C@H]4C[C@@H](O[C@H]5O[C@H](COS(=O)(=O)[O-])[C@@H](O[C@H]6O[C@H](COS(=O)(=O)[O-])[C@@H](O[C@H]7O[C@H](COS(=O)(=O)[O-])[C@@H](O[C@H]8O[C@H](COS(=O)(=O)[O-])[C@@H](O[C@H]9O[C@H](COS(=O)(=O)[O-])[C@@H](O[C@H]%10O[C@H](COS(=O)(=O)[O-])[C@@H](OS(=O)(=O)[O-])[C@H](OS(=O)(=O)[O-])[C@H]%10OS(=O)(=O)[O-])[C@H](OS(=O)(=O)[O-])[C@H]9OS(=O)(=O)[O-])[C@H](OS(=O)(=O)[O-])[C@H]8OS(=O)(=O)[O-])[C@H](OS(=O)(=O)[O-])[C@H]7OS(=O)(=O)[O-])[C@H](OS(=O)(=O)[O-])[C@H]6OS(=O)(=O)[O-])[C@H](OS(=O)(=O)[O-])[C@H]5OS(=O)(=O)[O-])CC[C@]4(C)[C@H]3CC[C@]12C.[Na+].[Na+].[Na+].[Na+].[Na+].[Na+].[Na+].[Na+].[Na+].[Na+].[Na+].[Na+].[Na+].[Na+].[Na+].[Na+].[Na+].[Na+].[Na+]	12.2 µg/mL	5.73	21.7 µg/mL		
[N-]=[N+]=NCCCCCCCCCCC(=O)NCCCCCCCCCCCO[C@@H]1O[C@H](COS(=O)(=O)[O-])[C@@H](O[C@H]2O[C@H](COS(=O)(=O)[O-])[C@@H](O[C@H]3O[C@H](COS(=O)(=O)[O-])[C@@H](O[C@H]4O[C@H](COS(=O)(=O)[O-])[C@@H](OS(=O)(=O)[O-])[C@H](OS(=O)(=O)[O-])[C@H]4OS(=O)(=O)[O-])[C@H](OS(=O)(=O)[O-])[C@H]3OS(=O)(=O)[O-])[C@H](OS(=O)(=O)[O-])[C@H]2OS(=O)(=O)[O-])[C@H](OS(=O)(=O)[O-])[C@H]1OS(=O)(=O)[O-].[Na+].[Na+].[Na+].[Na+].[Na+].[Na+].[Na+].[Na+].[Na+].[Na+].[Na+].[Na+].[Na+]			84.1 µg/mL	Not Active	
